{"source": "patent US12319929B2", "about": "“Compositions and methods for the treatment of Parkinson's disease” (VOYAGER THERAPEUTICS, INC., priority 2018, dated 2025)", "test_system": "patients with motor response fluctuations", "assay": "UPDRS III AUC response to threshold and suprathreshold IV levodopa infusion", "format": "in vivo, human", "conditions": "Baseline before AAV2-hAADC", "protocol": "On sequential days, patients received either a threshold (0.6 mg/mL; low-dose) or suprathreshold (1.2 mg/mL; high-dose) infusion of IV levodopa dosed at 1 mL/kg/hr for 2 hours. The order and threshold of IV levodopa dosing was randomized and double-blinded (LHLH, LHHL, HLHL, HLLH).\nOral carbidopa (25 mg) was administered 1-2 hours before, during, and 1-2 hours after the infusion. Participants' motor response was measured by UPDRS III (time to 30% change and duration of 30% responses); bradykinesia was measured by finger tapping rate; and dyskinesia was measured by Abnormal Involuntary Movement Scale (AIMS) scoring. Pharmacokinetics were assessed every 30 minutes after administration of IV levodopa.\nResults for Group 1 are shown in FIG. 12a: results for Group 2 are shown in FIG. 12b; and results for Group 3 are shown in FIG. 12c."}
{"smiles": "N[C@@H](Cc1ccc(O)c(O)c1)C(=O)O", "note": "[IV Levodopa, L-3,4-dihydroxyphenylalanine]", "values": [{"measurement": "UPDRS III AUC, mean (standard error)", "setting": "Suprathreshold (1.2 mg/kg/hr) IV Levodopa, Group 1 (N = 5)", "value": "−72.8 (13.1)"}, {"measurement": "UPDRS III AUC, mean (standard error)", "setting": "Suprathreshold (1.2 mg/kg/hr) IV Levodopa, Group 2 (N = 5)", "value": "−45.0 (13.5)"}, {"measurement": "UPDRS III AUC, mean (standard error)", "setting": "Suprathreshold (1.2 mg/kg/hr) IV Levodopa, Group 3 (N=3)", "value": "−41.1 (13.8)"}, {"measurement": "UPDRS III AUC, mean (standard error)", "setting": "Threshold (0.6 mg/kg/hr) IV Levodopa, Group 1 (N = 5)", "value": "−22.1 (9.7)"}, {"measurement": "UPDRS III AUC, mean (standard error)", "setting": "Threshold (0.6 mg/kg/hr) IV Levodopa, Group 2 (N = 5)", "value": "−21.8 (5.9)"}, {"measurement": "UPDRS III AUC, mean (standard error)", "setting": "Threshold (0.6 mg/kg/hr) IV Levodopa, Group 3 (N=3)", "value": "−16.1 (11.4)"}]}
